Results taken from US8791148B2, “Substituted benzimidazolone derivatives, medicaments comprising them and their use” (AbbVie Deutschland GmbH & Co. KG, priority 2006, dated 2014).
pKi: −log10 of the molar value.

Biological target: T1, human vasopressin V1b receptor (Homo sapiens, UniProt P47901)
T1 construct: expressed in transfected cells; host or cells: CHO-K1 (cell line hV1b-3H2_CHO), membrane preparation
T1 sequence (P47901 1-424): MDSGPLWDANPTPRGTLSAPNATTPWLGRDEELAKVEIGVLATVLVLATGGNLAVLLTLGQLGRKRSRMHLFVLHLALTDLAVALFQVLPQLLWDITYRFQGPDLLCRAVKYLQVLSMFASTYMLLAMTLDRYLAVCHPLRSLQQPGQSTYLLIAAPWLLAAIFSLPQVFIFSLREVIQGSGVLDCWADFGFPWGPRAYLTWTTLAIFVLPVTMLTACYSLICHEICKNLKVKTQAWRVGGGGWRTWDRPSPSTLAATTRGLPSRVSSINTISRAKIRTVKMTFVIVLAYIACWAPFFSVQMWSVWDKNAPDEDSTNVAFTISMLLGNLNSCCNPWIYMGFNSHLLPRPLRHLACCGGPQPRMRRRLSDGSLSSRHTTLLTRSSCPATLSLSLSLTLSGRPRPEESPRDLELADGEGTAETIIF
Experiment: Vasopressin V1b receptor binding assay
Details: membranes from CHO-K1 cells with stably expressed human V1b receptors; displacement of 1.5 nM 3H-AVP; read-out: V1b receptor affinity (affinity constant Ki)
Procedure: Vasopressin V1b Receptor Binding Assay:
The test substances were dissolved in a concentration of 10^−2 M in DMSO and further diluted to 5×10^−4 M to 5×10^−9 M in DMSO. This series of DMSO predilutions was diluted 1:10 with assay buffer. The substance concentration was again diluted 1:5 in the assay mixture (2% DMSO in the mixture).
The membrane pellet was again homogenized and centrifuged as described and then taken up in 50 mM Tris-HCl, pH 7.4, homogenized and stored in aliquots frozen in liquid nitrogen at −190° C.
The incubation buffer was: 50 mM Tris, 10 mM MgCl2, 0.1% BSA, pH 7.4. […] The nonspecific binding was determined with 1 uM AVP (Bachem #H1780). All determinations were carried out as triplicate determinations. After incubation (60 minutes at room temperature), the free radioligand was removed by vacuum filtration (Skatron cell harvester 7000) through Wathman GF/B glass fiber filter mats, and the filters were transferred into scintillation vials. The liquid scintillation measurement took place in a Tricarb model 2000 or 2200CA instrument (Packard). Conversion of the measured cpm into dpm was carried out with the aid of a standard quench series.
The binding parameters were calculated by nonlinear regression in SAS.
The above assay was used to measure the affinities of the compounds of the invention for the human vasopressin V1b receptor and to determine the affinity constants (Ki).

Row | Structure (SMILES) | pKi
1 | COc1ccc(C(C(=O)N2CCN(c3ccncc3)CC2)n2c(=O)n(S(=O)(=O)c3ccc(OC)cc3OC)c3ccc(Cl)cc32)cc1 (centres unmarked) [Example 1, 5-Chloro-1-(2,4-dimethoxybenzenesulfonyl)-3-[1-(4-methoxyphenyl)-2-oxo-2-(4-pyridin-4-ylpiperazin-1-yl)ethyl]-1,3-dihydrobenzimidazol-2-one] | 6.30 to 7.00
2 | O=C(C(c1ccccc1)n1c(=O)n(S(=O)(=O)c2ccco2)c2ccc(Cl)cc21)N1CCN(c2ccncc2)CC1 (centres unmarked) [Example 2, 5-Chloro-1-(furan-2-sulfonyl)-3-[2-oxo-1-phenyl-2-(4-pyridin-4-ylpiperazin-1-yl)ethyl]-1,3-dihydrobenzimidazol-2-one] | 6.30 to 7.00
3 | CN1CCN(C2CCN(C(=O)C(c3ccccc3)n3c(=O)n(S(=O)(=O)c4cccc5cccnc45)c4ccc(Cl)cc43)CC2)CC1 (centres unmarked) [Example 3, 5-Chloro-3-{2-[4-(4-methylpiperazin-1-yl)piperidin-1-yl]-2-oxo-1-phenyl-ethyl}-1-(quinoline-8-sulfonyl)-1,3-dihydrobenzimidazol-2-one] | 5.00 to 6.30
4 | COc1ccc(S(=O)(=O)n2c(=O)n(C(C(=O)N3CCN(c4ccncc4)CC3)c3ccccc3)c3cc(I)ccc32)cc1 (centres unmarked) [Example 4, 5-Iodo-1-(4-methoxybenzenesulfonyl)-3-[2-oxo-1-phenyl-2-(4-pyridin-4-ylpiperazin-1-yl)ethyl]-1,3-dihydrobenzimidazol-2-one] | > 7.00
5 | O=C(C(c1ccccc1)n1c(=O)n(S(=O)(=O)c2ccsc2)c2ccc(Cl)cc21)N1CCN(c2ccncc2)CC1 (centres unmarked) [Example 5, 5-Chloro-3-[2-oxo-1-phenyl-2-(4-pyridin-4-ylpiperazin-1-yl)ethyl]-1-(thiophene-3-sulfonyl)-1,3-dihydrobenzimidazol-2-one] | 6.30 to 7.00
6 | COc1ccc(S(=O)(=O)n2c(=O)n(C(C(=O)N3CCN(c4ccncc4)CC3)c3ccccc3OC)c3cc(Cl)ccc32)cc1 (centres unmarked) [Example 6, 5-Chloro-1-(4-methoxybenzenesulfonyl)-3-[1-(2-methoxyphenyl)-2-oxo-2-(4-pyridin-4-ylpiperazin-1-yl)ethyl]-1,3-dihydrobenzimidazol-2-one] | 6.30 to 7.00
7 | O=C(C(c1ccccc1)n1c(=O)n(S(=O)(=O)c2ccc(Cl)s2)c2ccc(Cl)cc21)N1CCN(c2ccncc2)CC1 (centres unmarked) [Example 7, 5-Chloro-1-(5-chlorothiophene-2-sulfonyl)-3-[2-oxo-1-phenyl-2-(4-pyridin-4-ylpiperazin-1-yl)ethyl]-1,3-dihydrobenzimidazol-2-one] | 5.00 to 6.30
8 | COc1ccc(S(=O)(=O)n2c(=O)n(C(C(=O)N3CCN(C4CCN(C)CC4)CC3)c3ccccc3OC)c3cc(Cl)ccc32)c(OC)c1 (centres unmarked) [Example 8, 5-Chloro-1-(2,4-dimethoxybenzenesulfonyl)-3-{1-(2-methoxyphenyl)-2-[4-(1-methylpiperidin-4-yl)piperazin-1-yl]-2-oxoethyl}-1,3-dihydrobenzimidazol-2-one] | 5.00 to 6.30
9 | COc1ccc(S(=O)(=O)n2c(=O)n(C(C(=O)N3CCN(C4CCN(C)CC4)CC3)c3ccccc3OC)c3cc(Cl)ccc32)cc1 (centres unmarked) [Example 9, 5-Chloro-1-(4-methoxybenzenesulfonyl)-3-{1-(2-methoxyphenyl)-2-[4-(1-methylpiperidin-4-yl)piperazin-1-yl]-2-oxoethyl}-1,3-dihydrobenzimidazol-2-one] | 5.00 to 6.30
10 | COc1ccc(S(=O)(=O)n2c(=O)n(C(C(=O)N3CCN(C4CCN(C)CC4)CC3)c3ccccc3)c3cc(C#N)ccc32)c(OC)c1 (centres unmarked) [Example 10, 1-(2,4-Dimethoxybenzenesulfonyl)-3-{2-[4-(1-methylpiperidin-4-yl)piperazin-1-yl]-2-oxo-1-phenylethyl}-2-oxo-2,3-dihydro-1H-benzimidazole-5-carbonitrile] | 5.00 to 6.30
11 | COc1ccc(S(=O)(=O)n2c(=O)n(C(C(=O)N3CCN(C4CCN(C)CC4)CC3)c3ccccc3)c3cc(C#N)ccc32)cc1 (centres unmarked) [Example 11, 1-(4-Methoxybenzenesulfonyl)-3-{2-[4-(1-methylpiperidin-4-yl)piperazin-1-yl]-2-oxo-1-phenylethyl}-2-oxo-2,3-dihydro-1H-benzimidazole-5-carbonitrile] | 5.00 to 6.30
